For experiment [1], the system named is Capan-1 cells (K-Ras G12V). The experiment is described as follows: CellTiter-Glo cell viability, Capan-1. The experiment is classed as cell-based, human. The note with it: Homo sapiens, CAPAN-1, 120 h, K-Ras G12V, 5-day treatment; read-out: Capan-1 Cell Viability IC50. The procedure, abridged: (§1)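 Viability is read as luminescence after five days of compound exposure, with plates first equilibrated to room temperature for roughly 30 minutes. Each signal is expressed as a percentage of the mean DMSO control, and curves are fitted by four-parameter logistic regression.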
In general terms: Cellular ATP, detected with luciferase, serves as a proxy for viable cell number.

The subject of experiment [2] is NCI-H358 cells (K-Ras G12C). The experiment is described as follows: CellTiter-Glo cell viability, NCI-H358. The note with it: Homo sapiens, NCI-H358, 120 h, K-Ras G12C, 5-day treatment; read-out: H358 Cell Viability IC50. The experiment is classed as cell-based, human. The procedure, abridged: as §1
The target of the next experiment is KRAS G12C (Homo sapiens (Human), UniProt P01116+P62937, G12C). The experiment is described as follows: Ras-Raf disruption/FRET/MOA assay (BRAF RBD, Cyclophilin A). The experiment is classed as biochemical. The note with it: read-out: KRAS G12C FRET IC50. The procedure, abridged:
(§2)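 Measured: compound-facilitated Cyclophilin A:Ras complex blocking RAF RBD binding. Conditions: 12.5 nM Ras-GMPPNP, 50 nM BRAF RBD, 25 μM CypA, 3 h plus 1.5 h detection. Output: IC50 from TR-FRET ratio.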

The target of another experiment is KRAS G12D (Homo sapiens (Human), UniProt P01116+P62937, G12D). The description is as above. The experiment is classed as biochemical. The note with it: read-out: KRAS G12D FRET IC50. The procedure, abridged: as §2
KRAS G12D, sequence (P01116 other isoform, or with tags, fused parts or gaps G12D): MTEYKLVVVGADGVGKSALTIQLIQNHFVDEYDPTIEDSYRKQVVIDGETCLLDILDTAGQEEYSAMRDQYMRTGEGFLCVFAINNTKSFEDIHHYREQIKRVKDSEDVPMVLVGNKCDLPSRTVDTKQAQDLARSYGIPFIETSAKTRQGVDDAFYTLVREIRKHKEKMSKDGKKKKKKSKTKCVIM
KRAS G12D, sequence (P62937 whole entry): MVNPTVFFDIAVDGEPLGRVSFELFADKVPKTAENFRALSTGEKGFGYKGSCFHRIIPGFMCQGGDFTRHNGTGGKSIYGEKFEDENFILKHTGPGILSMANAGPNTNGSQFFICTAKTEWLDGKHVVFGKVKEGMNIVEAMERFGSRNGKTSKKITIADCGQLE
For a further experiment, the target named is NRAS Q61R (Homo sapiens (Human), UniProt P01111+P62937, Q61R). Described as above. The experiment is classed as biochemical. The procedure, abridged:
(§3)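 Ras-GMPPNP (12.5 nM), BRAF RBD (50 nM) and 25 μM Cyclophilin A were incubated with compound for 3 h at 25° C, then detected 1.5 h with anti-His Eu and anti-GST APC; IC50 values follow from the reduced TR-FRET ratio.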

For a further experiment, the target named is KRAS G12V (Homo sapiens (Human), UniProt P01116+P62937, G12V). Described as above. The experiment is classed as biochemical. The note with it: read-out: KRAS G12V FRET IC50. The procedure, abridged:
as §2

For a further experiment, the target named is KRAS Q61H (Homo sapiens (Human), UniProt P01116+P62937, Q61H). The description is as above. The experiment is classed as biochemical. Put shortly: as §2
KRAS Q61H, sequence (P01116 other isoform, or with tags, fused parts or gaps Q61H): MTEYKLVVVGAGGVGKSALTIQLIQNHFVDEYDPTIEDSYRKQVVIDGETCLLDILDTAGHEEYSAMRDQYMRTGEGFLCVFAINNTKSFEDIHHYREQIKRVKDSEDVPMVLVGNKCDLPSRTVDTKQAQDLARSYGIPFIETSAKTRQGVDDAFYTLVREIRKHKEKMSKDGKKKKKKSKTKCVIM
KRAS Q61H, sequence (P62937 whole entry): as the sequence (P62937 whole entry) above
In a further experiment the target is KRAS G13C (Homo sapiens (Human), UniProt P01116+P62937, G13C). Described as above. The experiment is classed as biochemical. The note with it: read-out: KRAS G13C FRET IC50. The procedure, abridged:
as §2

In the next experiment the target is NRAS WT (Homo sapiens (Human), UniProt P01111+P62937). Described as above. The experiment is classed as biochemical. Put shortly: as §3
NRAS WT, sequence (P01111 whole entry): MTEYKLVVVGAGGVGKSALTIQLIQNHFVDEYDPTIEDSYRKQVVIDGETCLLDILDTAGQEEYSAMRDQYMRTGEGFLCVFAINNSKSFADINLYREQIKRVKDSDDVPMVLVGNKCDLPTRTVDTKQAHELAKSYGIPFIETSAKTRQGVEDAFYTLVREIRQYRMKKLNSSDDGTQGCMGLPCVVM
NRAS WT, sequence (P62937 whole entry): as the sequence (P62937 whole entry) above
The next experiment has as its target KRAS WT (Homo sapiens (Human), UniProt P01116+P62937). The experiment is described as above. The experiment is classed as biochemical. The note with it: read-out: KRAS WT FRET data IC50. Put shortly:
as §2

The next experiment concerns the target KRAS G12S (Homo sapiens (Human), UniProt P01116+P62937, G12S). The experiment is described as above. The experiment is classed as biochemical. The note with it: read-out: KRAS G12S FRET IC50. Put shortly:
as §2

The next experiment has as its target NRAS G12C (Homo sapiens (Human), UniProt P01111+P62937, G12C). The experiment is described as above. The experiment is classed as biochemical. The note with it: read-out: NRAS G12C FRET data IC50. Put shortly:
as §3

In the next experiment the target is KRAS G13D (Homo sapiens (Human), UniProt P01116+P62937, G13D). The description is as above. The note with it: read-out: KRAS G13D FRET data IC50. The experiment is classed as biochemical. Put shortly: as §2
KRAS G13D, sequence (P01116 other isoform, or with tags, fused parts or gaps G13D): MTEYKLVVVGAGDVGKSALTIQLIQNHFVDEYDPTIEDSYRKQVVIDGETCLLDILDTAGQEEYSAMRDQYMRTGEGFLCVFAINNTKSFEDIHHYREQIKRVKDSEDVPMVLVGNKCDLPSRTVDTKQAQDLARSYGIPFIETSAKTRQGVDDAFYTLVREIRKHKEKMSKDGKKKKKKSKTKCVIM
KRAS G13D, sequence (P62937 whole entry): as the sequence (P62937 whole entry) above
The test system of experiment [3] is K-Ras G12C (NCI-H358 cells). The experiment is described as follows: Potency assay: pERK in NCI-H358 cells. The experiment is classed as cell-based, human. The note with it: Homo sapiens; NCI-H358 cells, 4 hours; read-out: pERK EC50 (H358 KRAS G12C). Put shortly:
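Cells plated the day before were exposed for 4 h at 37° C, 5% CO2 to a 10-point, 3-fold DMSO dilution series (10 mM top stock), in duplicate. Phospho-ERK was read by AlphaLISA SureFire Ultra or by In-Cell Western with DRAQ5 DNA stain, and IC50 came from a 4-parameter sigmoidal fit.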

The structures appear in SMILES notation. pEC50, pIC50: −log10 of the molar value.

KRAS G12S, sequence (P01116 other isoform, or with tags, fused parts or gaps G12S): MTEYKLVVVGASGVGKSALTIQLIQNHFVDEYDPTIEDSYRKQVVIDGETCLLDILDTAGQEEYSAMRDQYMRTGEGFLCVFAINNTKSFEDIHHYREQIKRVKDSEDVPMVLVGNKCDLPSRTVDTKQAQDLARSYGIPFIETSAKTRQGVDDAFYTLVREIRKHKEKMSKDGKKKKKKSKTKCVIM
KRAS G12S, sequence (P62937 whole entry): as the sequence (P62937 whole entry) above
NRAS Q61R, sequence (P01111 whole entry Q61R): as the sequence (P01111 whole entry) above, with Q61R counted along it
NRAS Q61R, sequence (P62937 whole entry): as the sequence (P62937 whole entry) above
NRAS G12C, sequence (P01111 whole entry G12C): as the sequence (P01111 whole entry) above, with G12C counted along it
NRAS G12C, sequence (P62937 whole entry): as the sequence (P62937 whole entry) above
KRAS WT, sequence (P01116 other isoform, or with tags, fused parts or gaps): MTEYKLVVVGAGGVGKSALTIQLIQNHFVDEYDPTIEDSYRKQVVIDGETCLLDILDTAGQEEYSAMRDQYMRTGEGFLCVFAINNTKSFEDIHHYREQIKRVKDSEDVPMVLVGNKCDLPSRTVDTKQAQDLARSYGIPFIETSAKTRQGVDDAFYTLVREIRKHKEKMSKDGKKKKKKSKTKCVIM
KRAS WT, sequence (P62937 whole entry): as the sequence (P62937 whole entry) above
KRAS G13C, sequence (P01116 other isoform, or with tags, fused parts or gaps G13C): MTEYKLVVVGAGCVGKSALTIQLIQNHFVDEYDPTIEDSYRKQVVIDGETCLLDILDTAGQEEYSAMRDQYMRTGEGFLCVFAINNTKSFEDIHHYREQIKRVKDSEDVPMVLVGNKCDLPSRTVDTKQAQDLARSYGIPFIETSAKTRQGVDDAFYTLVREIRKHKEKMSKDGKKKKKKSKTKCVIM
KRAS G13C, sequence (P62937 whole entry): as the sequence (P62937 whole entry) above
KRAS G12V, sequence (P01116 other isoform, or with tags, fused parts or gaps G12V): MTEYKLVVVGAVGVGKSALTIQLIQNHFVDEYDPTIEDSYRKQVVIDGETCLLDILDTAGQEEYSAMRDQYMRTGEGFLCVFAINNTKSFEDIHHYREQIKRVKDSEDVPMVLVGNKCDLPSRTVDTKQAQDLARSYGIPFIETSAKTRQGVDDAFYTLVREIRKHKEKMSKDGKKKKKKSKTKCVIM
KRAS G12V, sequence (P62937 whole entry): as the sequence (P62937 whole entry) above
KRAS G12C, sequence (P01116-2 other isoform, or with tags, fused parts or gaps G12C): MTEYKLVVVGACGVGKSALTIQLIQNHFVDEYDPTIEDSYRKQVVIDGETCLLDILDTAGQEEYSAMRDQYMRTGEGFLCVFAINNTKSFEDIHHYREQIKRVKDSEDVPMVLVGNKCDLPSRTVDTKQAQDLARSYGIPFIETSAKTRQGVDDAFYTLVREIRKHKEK
KRAS G12C, sequence (P62937 whole entry): as the sequence (P62937 whole entry) above

As to `CCn1c(-c2cccnc2[C@H](C)OC)c2c3cc(ccc31)-c1csc(n1)C[C@H](NC(=O)[C@H](C(C)C)N(C)C(=O)N(C)C1COC1)C(=O)N1CCC[C@H](N1)C(=O)OCC(C)(C)C2` [Compound A334], the pIC50 was 7.00 to 8.00 in [1]; 7.00 to 8.00 in experiment [2]; 7.00 to 8.00 at KRAS G12C; 6.00 to 7.00 at KRAS G12D; 6.00 to 7.00 at NRAS Q61R; 6.00 to 7.00 on KRAS G12V. The pIC50 on KRAS Q61H is 7.00 to 8.00; at KRAS G13C, 6.00 to 7.00; against NRAS WT, 6.00 to 7.00; at KRAS WT, 6.00 to 7.00; at KRAS G12S, 6.00 to 7.00; at NRAS G12C it was 7.00 to 8.00. Also, at KRAS G13D, the negative logarithm of the IC50 (pIC50) was 6.00 to 7.00.
On to `CCn1c(-c2cccnc2[C@H](C)OC)c2c3cc(ccc31)-c1csc(n1)C[C@H](NC(=O)[C@H](C(C)C)N(C)C(=O)N1CC(C(=O)O)C1)C(=O)N1CCC[C@H](N1)C(=O)OCC(C)(C)C2` [Compound A344], for which the negative-log IC50 (pIC50) in experiment [1] is < 5.00; at KRAS G12C, 6.00 to 7.00; at KRAS G12D, 5.00 to 6.00; against NRAS Q61R it was 6.00 to 7.00; at KRAS G12V, 6.00 to 7.00; against KRAS Q61H, 6.00 to 7.00. For the same compound, the negative-log IC50 (pIC50) on KRAS G13C is 6.00 to 7.00; against NRAS WT it was 6.00 to 7.00; at KRAS WT, 6.00 to 7.00; on KRAS G12S it was 6.00 to 7.00; on NRAS G12C, 6.00 to 7.00; on KRAS G13D it was 5.00 to 6.00. Besides, the negative-log EC50 (pEC50) in [3] was > 5.30.
As to `CCn1c(-c2cccnc2[C@H](C)OC)c2c3cc(ccc31)-c1csc(n1)C[C@H](NC(=O)[C@H](C(C)C)N(C)C(=O)N1CC(O)C1)C(=O)N1CCC[C@H](N1)C(=O)OCC(C)(C)C2` [Compound A358], the negative logarithm of the IC50 (pIC50) was 7.00 to 8.00 in experiment [1]; 7.00 to 8.00 at KRAS G12C; 6.00 to 7.00 on KRAS G12D; 6.00 to 7.00 at NRAS Q61R; 6.00 to 7.00 at KRAS G12V; 7.00 to 8.00 against KRAS Q61H. Further, the pIC50 on KRAS G13C was 6.00 to 7.00; at NRAS WT it was 6.00 to 7.00; on KRAS WT, 6.00 to 7.00; on KRAS G12S it was 6.00 to 7.00; on NRAS G12C it was 7.00 to 8.00; on KRAS G13D it was 6.00 to 7.00. In experiment [3], the pEC50 was > 5.30.
As for `CCn1c(-c2cccnc2[C@H](C)OC)c2c3cc(ccc31)-c1csc(n1)C[C@H](NC(=O)[C@H](C(C)C)N(C)C(=O)N1CC[C@H](O)C1)C(=O)N1CCC[C@H](N1)C(=O)OCC(C)(C)C2` [Compound A401], the negative logarithm of the IC50 (pIC50) in experiment [1] was 7.00 to 8.00; in [2] it was 7.00 to 8.00; on KRAS G12C it was 7.00 to 8.00; on KRAS G12D, 6.00 to 7.00; against NRAS Q61R, 6.00 to 7.00; on KRAS G12V, 6.00 to 7.00. In addition, the negative logarithm of the IC50 (pIC50) against KRAS Q61H was 7.00 to 8.00; on KRAS G13C, 6.00 to 7.00; against NRAS WT, 6.00 to 7.00; on KRAS WT it was 6.00 to 7.00; at KRAS G12S it was 6.00 to 7.00; on NRAS G12C, 7.00 to 8.00. The negative-log IC50 (pIC50) on KRAS G13D is 6.00 to 7.00.
In the case of `CCn1c(-c2cccnc2[C@H](C)OC)c2c3cc(ccc31)-c1cc(O)cc(c1)C[C@H](NC(=O)[C@H](C(C)C)N(C)C(=O)[C@H]1CCC(=O)O1)C(=O)N1CCC[C@H](N1)C(=O)OCC(C)(C)C2` [Compound A405], the pIC50 in [1] was 5.00 to 6.00; in [2], 5.00 to 6.00; on KRAS G12C it was 7.00 to 8.00; at KRAS G12D, 6.00 to 7.00; against NRAS Q61R, 6.00 to 7.00; on KRAS G12V, 7.00 to 8.00. In addition, the pIC50 on KRAS Q61H, at KRAS G13C, against NRAS WT, at KRAS WT, on KRAS G12S and on NRAS G12C was 7.00 to 8.00 each time. In addition, the pIC50 at KRAS G13D is 7.00 to 8.00.

One may read the pIC50 as the negative decadic logarithm of the IC50, by convention in mol/L. For orientation: pEC50 means the EC50 on a negative log10 scale, so that one unit is a factor of ten.

The values are drawn from patent US20250195521A1 (Revolution Medicines, Inc., priority 2020, published 2025).
